Data as given in publication PMC6891286, “Towards the Development of an In vivo Chemical Probe for Cyclin G Associated Kinase (GAK)” (Molecules, 2019).

Tests used:
Assay in all cases: KINOMEscan
Type in all cases: binding
Settings in all cases: 35 at 1 µM; read-out: % inhibition
ARK5 = target: T1, ARK5 (Homo sapiens, UniProt O60285)
T1 construct: purchased Eurofins DiscoverX (KINOMEscan)
Protocol: (§1) KinomeScan Assay on 35 was performed as previously described at EuroFins DiscoverX (Fremont, CA, USA).

AKT2 = target: T2, AKT2 (Homo sapiens, UniProt P31751)
T2 construct: purchased Eurofins DiscoverX (KINOMEscan)
Protocol: as §1

LOK = target: T3, LOK (Homo sapiens, UniProt O94804)
T3 construct: purchased Eurofins DiscoverX (KINOMEscan)
Protocol: as §1

BMPR1A = target: T4, BMPR1A (Homo sapiens, UniProt P36894)
T4 construct: purchased Eurofins DiscoverX (KINOMEscan)
Protocol: as §1

PCTK3 = target: T5, PCTK3 (Homo sapiens, UniProt Q07002)
T5 construct: purchased Eurofins DiscoverX (KINOMEscan)
Protocol: as §1

DAPK1 = target: T6, DAPK1 (Homo sapiens, UniProt P53355)
T6 construct: purchased Eurofins DiscoverX (KINOMEscan)
Protocol: as §1

MAP4K2 = target: T7, MAP4K2 (Homo sapiens, UniProt Q12851)
T7 construct: purchased Eurofins DiscoverX (KINOMEscan)
Protocol: as §1

CIT = target: T8, CIT (Homo sapiens, UniProt O14578)
T8 construct: purchased Eurofins DiscoverX (KINOMEscan)
Protocol: as §1

MAPKAPK5 = target: T9, MAPKAPK5 (Homo sapiens, UniProt Q8IW41)
T9 construct: purchased Eurofins DiscoverX (KINOMEscan)
Protocol: as §1

LTK = target: T10, LTK (Homo sapiens, UniProt P29376)
T10 construct: purchased Eurofins DiscoverX (KINOMEscan)
Protocol: as §1

GSK3A = target: T11, GSK3A (Homo sapiens, UniProt P49840)
T11 construct: purchased Eurofins DiscoverX (KINOMEscan)
Protocol: as §1

[1] = target: T12, RSK4(Kin.Dom.1-N-terminal) (Homo sapiens, UniProt Q9UK32)
T12 construct: RSK4(Kin.Dom.1-N-terminal); purchased Eurofins DiscoverX (KINOMEscan)
Protocol: as §1

SGK2 = target: T13, SGK2 (Homo sapiens, UniProt Q9HBY8)
T13 construct: purchased Eurofins DiscoverX (KINOMEscan)
Protocol: as §1

PRKG2 = target: T14, PRKG2 (Homo sapiens, UniProt Q13237)
T14 construct: purchased Eurofins DiscoverX (KINOMEscan)
Protocol: as §1

AXL = target: T15, AXL (Homo sapiens, UniProt P30530)
T15 construct: purchased Eurofins DiscoverX (KINOMEscan)
Protocol: as §1

ABL1-nonphosphorylated = target: T16, ABL1-nonphosphorylated (Homo sapiens, UniProt P00519)
T16 construct: purchased Eurofins DiscoverX (KINOMEscan)
Protocol: as §1

EGFR(G719S) = target: T17, EGFR(G719S) (Homo sapiens, UniProt P00533, G719S)
T17 construct: purchased Eurofins DiscoverX (KINOMEscan)
Protocol: as §1

AURKC = target: T18, AURKC (Homo sapiens, UniProt Q9UQB9)
T18 construct: purchased Eurofins DiscoverX (KINOMEscan)
Protocol: as §1

PKN2 = target: T19, PKN2 (Homo sapiens, UniProt Q16513)
T19 construct: purchased Eurofins DiscoverX (KINOMEscan)
Protocol: as §1

IKK-beta = target: T20, IKK-beta (Homo sapiens, UniProt O14920)
T20 construct: purchased Eurofins DiscoverX (KINOMEscan)
Protocol: as §1

[2] = target: T21, ABL1(M351T)-phosphorylated (Homo sapiens, UniProt P00519, M351T)
T21 construct: purchased Eurofins DiscoverX (KINOMEscan)
Protocol: as §1

PAK2 = target: T22, PAK2 (Homo sapiens, UniProt Q13177)
T22 construct: purchased Eurofins DiscoverX (KINOMEscan)
Protocol: as §1

CDK5 = target: T23, CDK5 (Homo sapiens, UniProt Q00535)
T23 construct: purchased Eurofins DiscoverX (KINOMEscan)
Protocol: as §1

MINK = target: T24, MINK (Homo sapiens, UniProt Q8N4C8)
T24 construct: purchased Eurofins DiscoverX (KINOMEscan)
Protocol: as §1

PIK3CD = target: T25, PIK3CD (Homo sapiens, UniProt O00329)
T25 construct: purchased Eurofins DiscoverX (KINOMEscan)
Protocol: as §1

BRK = target: T26, BRK (Homo sapiens, UniProt Q13882)
T26 construct: purchased Eurofins DiscoverX (KINOMEscan)
Protocol: as §1

FGFR3(G697C) = target: T27, FGFR3(G697C) (Homo sapiens, UniProt P22607, G697C)
T27 construct: purchased Eurofins DiscoverX (KINOMEscan)
Protocol: as §1

PAK3 = target: T28, PAK3 (Homo sapiens, UniProt O75914)
T28 construct: purchased Eurofins DiscoverX (KINOMEscan)
Protocol: as §1

FLT3(N841I) = target: T29, FLT3(N841I) (Homo sapiens, UniProt P36888, N841I)
T29 construct: purchased Eurofins DiscoverX (KINOMEscan)
Protocol: as §1

TAK1 = target: T30, TAK1 (Homo sapiens, UniProt O43318)
T30 construct: purchased Eurofins DiscoverX (KINOMEscan)
Protocol: as §1

ACVR2B = target: T31, ACVR2B (Homo sapiens, UniProt Q13705)
T31 construct: purchased Eurofins DiscoverX (KINOMEscan)
Protocol: as §1

ALK(L1196M) = target: T32, ALK(L1196M) (Homo sapiens, UniProt Q9UM73, L1196M)
T32 construct: purchased Eurofins DiscoverX (KINOMEscan)
Protocol: as §1

[3] = target: T33, ABL1(F317L)-phosphorylated (Homo sapiens, UniProt P00519, F317L)
T33 construct: purchased Eurofins DiscoverX (KINOMEscan)
Protocol: as §1

MEK2 = target: T34, MEK2 (Homo sapiens, UniProt P36507)
T34 construct: purchased Eurofins DiscoverX (KINOMEscan)
Protocol: as §1

YES = target: T35, YES (Homo sapiens, UniProt P07947)
T35 construct: purchased EuroFins DiscoverX (Fremont, CA, USA)
Protocol: as §1

[4] = target: T36, JAK1(JH2domain-pseudokinase) (Homo sapiens, UniProt P23458)
T36 construct: JAK1(JH2domain-pseudokinase); purchased Eurofins DiscoverX (KINOMEscan)
Protocol: as §1

EGFR(L861Q) = target: T37, EGFR(L861Q) (Homo sapiens, UniProt P00533, L861Q)
T37 construct: purchased Eurofins DiscoverX (KINOMEscan)
Protocol: as §1

CSF1R = target: T38, CSF1R (Homo sapiens, UniProt P07333)
T38 construct: purchased Eurofins DiscoverX (KINOMEscan)
Protocol: as §1

PAK6 = target: T39, PAK6 (Homo sapiens, UniProt Q9NQU5)
T39 construct: purchased Eurofins DiscoverX (KINOMEscan)
Protocol: as §1

EGFR(L858R) = target: T40, EGFR(L858R) (Homo sapiens, UniProt P00533, L858R)
T40 construct: purchased Eurofins DiscoverX (KINOMEscan)
Protocol: as §1

CAMK1D = target: T41, CAMK1D (Homo sapiens, UniProt Q8IU85)
T41 construct: purchased Eurofins DiscoverX (KINOMEscan)
Protocol: as §1

LZK = target: T42, LZK (Homo sapiens, UniProt O43283)
T42 construct: purchased Eurofins DiscoverX (KINOMEscan)
Protocol: as §1

T19 sequence (Q16513 whole entry): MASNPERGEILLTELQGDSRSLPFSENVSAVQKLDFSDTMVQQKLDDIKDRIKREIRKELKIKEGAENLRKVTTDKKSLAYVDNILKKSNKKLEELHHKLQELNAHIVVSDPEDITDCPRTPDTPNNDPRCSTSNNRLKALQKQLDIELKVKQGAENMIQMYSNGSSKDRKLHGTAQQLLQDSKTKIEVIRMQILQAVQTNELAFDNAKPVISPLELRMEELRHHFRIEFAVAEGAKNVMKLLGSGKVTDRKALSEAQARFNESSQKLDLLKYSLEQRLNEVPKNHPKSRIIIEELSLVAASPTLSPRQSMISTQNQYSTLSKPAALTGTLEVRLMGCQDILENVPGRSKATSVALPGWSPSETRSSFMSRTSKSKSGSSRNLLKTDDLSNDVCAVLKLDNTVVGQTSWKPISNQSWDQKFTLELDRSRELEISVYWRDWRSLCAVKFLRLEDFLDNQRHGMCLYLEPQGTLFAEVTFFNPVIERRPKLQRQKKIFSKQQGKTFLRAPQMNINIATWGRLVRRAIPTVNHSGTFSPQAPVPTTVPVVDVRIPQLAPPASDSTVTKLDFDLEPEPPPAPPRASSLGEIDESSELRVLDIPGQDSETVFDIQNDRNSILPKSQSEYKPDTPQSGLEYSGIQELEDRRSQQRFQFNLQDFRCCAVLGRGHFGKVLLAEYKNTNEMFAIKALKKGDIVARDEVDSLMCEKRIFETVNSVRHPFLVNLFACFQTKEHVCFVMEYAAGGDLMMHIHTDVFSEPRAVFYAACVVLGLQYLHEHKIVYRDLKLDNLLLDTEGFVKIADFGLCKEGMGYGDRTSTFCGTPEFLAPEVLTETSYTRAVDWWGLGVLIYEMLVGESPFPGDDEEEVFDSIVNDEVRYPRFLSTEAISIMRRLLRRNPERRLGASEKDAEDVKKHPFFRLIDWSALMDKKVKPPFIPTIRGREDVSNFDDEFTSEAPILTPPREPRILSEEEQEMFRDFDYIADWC
T23 sequence (Q00535 whole entry): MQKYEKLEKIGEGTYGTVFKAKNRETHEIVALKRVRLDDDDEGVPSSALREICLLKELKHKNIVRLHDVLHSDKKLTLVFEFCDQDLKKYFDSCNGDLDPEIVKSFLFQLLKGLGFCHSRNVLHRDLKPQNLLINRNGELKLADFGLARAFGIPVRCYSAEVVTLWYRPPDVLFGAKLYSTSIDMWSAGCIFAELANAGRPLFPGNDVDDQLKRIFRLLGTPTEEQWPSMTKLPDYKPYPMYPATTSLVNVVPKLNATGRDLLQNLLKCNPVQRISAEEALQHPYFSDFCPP
T38 sequence (P07333 20-972): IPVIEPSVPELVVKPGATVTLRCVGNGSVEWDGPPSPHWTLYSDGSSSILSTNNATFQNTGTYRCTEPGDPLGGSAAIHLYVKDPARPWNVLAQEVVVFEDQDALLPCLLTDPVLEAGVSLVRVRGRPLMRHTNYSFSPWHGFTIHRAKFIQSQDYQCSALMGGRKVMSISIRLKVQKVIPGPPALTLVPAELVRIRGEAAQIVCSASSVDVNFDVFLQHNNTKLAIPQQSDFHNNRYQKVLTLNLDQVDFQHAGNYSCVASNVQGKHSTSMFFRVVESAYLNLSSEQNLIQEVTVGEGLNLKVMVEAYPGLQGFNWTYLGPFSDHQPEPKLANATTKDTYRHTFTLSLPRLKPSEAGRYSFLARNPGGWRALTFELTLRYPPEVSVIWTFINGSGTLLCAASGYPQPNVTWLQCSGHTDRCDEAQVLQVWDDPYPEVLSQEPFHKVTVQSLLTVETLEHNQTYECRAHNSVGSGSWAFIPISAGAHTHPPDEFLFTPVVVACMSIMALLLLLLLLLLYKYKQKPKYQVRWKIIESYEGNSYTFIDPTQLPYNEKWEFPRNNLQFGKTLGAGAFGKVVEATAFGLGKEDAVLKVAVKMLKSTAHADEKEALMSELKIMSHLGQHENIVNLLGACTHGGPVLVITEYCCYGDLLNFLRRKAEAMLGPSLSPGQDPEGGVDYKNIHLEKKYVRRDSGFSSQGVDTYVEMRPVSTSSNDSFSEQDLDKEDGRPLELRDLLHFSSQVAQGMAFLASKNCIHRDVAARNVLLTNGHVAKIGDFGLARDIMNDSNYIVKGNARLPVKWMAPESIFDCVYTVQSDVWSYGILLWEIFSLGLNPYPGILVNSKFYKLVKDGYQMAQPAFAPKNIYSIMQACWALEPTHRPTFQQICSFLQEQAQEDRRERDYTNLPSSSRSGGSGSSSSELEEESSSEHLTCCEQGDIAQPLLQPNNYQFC
T35 sequence (P07947 whole entry): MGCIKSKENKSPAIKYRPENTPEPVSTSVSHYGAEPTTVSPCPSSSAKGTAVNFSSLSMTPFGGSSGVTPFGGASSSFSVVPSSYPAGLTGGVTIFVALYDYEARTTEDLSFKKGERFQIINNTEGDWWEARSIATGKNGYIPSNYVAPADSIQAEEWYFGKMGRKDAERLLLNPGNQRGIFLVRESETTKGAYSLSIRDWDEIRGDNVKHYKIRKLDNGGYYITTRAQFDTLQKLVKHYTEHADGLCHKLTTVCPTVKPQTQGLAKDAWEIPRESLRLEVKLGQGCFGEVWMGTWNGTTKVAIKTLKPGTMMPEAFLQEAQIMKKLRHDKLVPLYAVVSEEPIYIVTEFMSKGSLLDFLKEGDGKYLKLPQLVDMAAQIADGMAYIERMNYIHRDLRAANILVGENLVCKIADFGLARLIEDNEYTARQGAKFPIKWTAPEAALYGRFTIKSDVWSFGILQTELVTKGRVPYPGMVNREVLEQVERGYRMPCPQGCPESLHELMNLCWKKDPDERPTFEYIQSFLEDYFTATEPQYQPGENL
T3 sequence (O94804 whole entry): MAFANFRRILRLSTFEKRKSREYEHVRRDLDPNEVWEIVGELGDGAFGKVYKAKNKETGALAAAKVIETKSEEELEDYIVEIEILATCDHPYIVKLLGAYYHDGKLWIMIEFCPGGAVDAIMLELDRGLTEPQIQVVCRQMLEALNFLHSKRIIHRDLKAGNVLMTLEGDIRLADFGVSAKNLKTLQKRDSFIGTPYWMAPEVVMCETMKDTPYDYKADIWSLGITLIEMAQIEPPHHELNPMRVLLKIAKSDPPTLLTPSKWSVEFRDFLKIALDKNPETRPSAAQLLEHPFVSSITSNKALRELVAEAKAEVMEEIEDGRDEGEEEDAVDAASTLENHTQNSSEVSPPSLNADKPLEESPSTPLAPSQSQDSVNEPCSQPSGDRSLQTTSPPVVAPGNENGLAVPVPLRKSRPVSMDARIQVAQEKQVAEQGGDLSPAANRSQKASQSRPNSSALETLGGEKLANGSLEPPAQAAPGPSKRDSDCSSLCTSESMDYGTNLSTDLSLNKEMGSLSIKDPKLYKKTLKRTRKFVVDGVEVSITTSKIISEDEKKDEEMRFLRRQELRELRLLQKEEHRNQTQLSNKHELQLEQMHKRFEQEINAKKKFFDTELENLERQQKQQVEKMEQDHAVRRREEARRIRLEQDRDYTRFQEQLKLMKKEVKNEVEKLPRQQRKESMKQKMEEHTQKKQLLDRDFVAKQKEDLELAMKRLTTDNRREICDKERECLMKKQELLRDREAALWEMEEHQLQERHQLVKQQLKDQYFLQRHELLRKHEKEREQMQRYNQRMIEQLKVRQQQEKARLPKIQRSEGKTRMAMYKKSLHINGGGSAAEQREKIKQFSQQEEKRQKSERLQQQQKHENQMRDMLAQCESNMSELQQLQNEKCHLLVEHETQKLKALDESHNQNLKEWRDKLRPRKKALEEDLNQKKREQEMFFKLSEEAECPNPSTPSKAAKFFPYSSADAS
T5 sequence (Q07002 whole entry): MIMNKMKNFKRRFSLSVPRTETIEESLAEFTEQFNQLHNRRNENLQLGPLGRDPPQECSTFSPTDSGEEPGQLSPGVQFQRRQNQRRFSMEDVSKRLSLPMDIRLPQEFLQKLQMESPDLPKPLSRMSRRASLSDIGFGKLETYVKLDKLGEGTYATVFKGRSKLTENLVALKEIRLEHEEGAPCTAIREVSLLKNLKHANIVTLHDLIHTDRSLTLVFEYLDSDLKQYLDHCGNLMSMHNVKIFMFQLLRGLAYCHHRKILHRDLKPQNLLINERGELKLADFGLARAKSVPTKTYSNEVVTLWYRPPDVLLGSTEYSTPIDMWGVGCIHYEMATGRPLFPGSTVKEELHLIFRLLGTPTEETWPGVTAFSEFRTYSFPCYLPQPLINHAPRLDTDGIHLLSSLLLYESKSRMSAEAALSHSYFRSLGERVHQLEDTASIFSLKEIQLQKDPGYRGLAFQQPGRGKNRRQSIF
T4 sequence (P36894 24-532): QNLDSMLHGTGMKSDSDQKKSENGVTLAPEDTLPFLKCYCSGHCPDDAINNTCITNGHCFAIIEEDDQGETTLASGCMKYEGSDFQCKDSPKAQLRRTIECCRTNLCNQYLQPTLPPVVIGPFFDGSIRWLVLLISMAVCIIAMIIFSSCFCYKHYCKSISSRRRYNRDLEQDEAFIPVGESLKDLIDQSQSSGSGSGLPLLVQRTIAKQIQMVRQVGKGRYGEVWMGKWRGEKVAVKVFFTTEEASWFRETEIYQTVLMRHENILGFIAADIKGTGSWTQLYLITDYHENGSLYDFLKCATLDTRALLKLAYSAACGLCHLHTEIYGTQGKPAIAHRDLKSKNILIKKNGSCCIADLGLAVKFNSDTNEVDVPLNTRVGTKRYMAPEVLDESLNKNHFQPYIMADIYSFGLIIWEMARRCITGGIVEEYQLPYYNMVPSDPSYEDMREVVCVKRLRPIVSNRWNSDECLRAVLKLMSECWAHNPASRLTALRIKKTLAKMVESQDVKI
T36 sequence (P23458 583-855 limits assumed): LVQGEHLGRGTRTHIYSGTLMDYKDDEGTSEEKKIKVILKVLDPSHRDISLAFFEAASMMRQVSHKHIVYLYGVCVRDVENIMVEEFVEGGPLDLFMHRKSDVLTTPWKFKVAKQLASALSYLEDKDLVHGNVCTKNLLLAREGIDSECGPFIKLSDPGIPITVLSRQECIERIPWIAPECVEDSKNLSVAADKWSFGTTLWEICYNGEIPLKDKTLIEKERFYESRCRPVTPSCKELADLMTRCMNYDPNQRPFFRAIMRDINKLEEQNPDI

Brc1ccc2nccc(Nc3ccc4cn[nH]c4c3)c2c1 [Compound 35, 6-Bromo-N-(1H-indazol-6-yl)quinolin-4-amine]
activity at 1 µM (ARK5): 100% | activity at 1 µM (AKT2): 100% | activity at 1 µM (LOK): 100% | activity at 1 µM (BMPR1A): 100% | activity at 1 µM (PCTK3): 100% | activity at 1 µM (DAPK1): 100% | activity at 1 µM (MAP4K2): 100% | activity at 1 µM (CIT): 86% | activity at 1 µM (MAPKAPK5): 100% | activity at 1 µM (LTK): 100% | activity at 1 µM (GSK3A): 100% | activity at 1 µM [1]: 100% | activity at 1 µM (SGK2): 96% | activity at 1 µM (PRKG2): 100% | activity at 1 µM (AXL): 100% | activity at 1 µM (ABL1-nonphosphorylated): 88% | activity at 1 µM (EGFR(G719S)): 97% | activity at 1 µM (AURKC): 100% | activity at 1 µM (PKN2): 99% | activity at 1 µM (IKK-beta): 100% | activity at 1 µM [2]: 100% | activity at 1 µM (PAK2): 85% | activity at 1 µM (CDK5): 100% | activity at 1 µM (MINK): 100% | activity at 1 µM (PIK3CD): 100% | activity at 1 µM (BRK): 93% | activity at 1 µM (FGFR3(G697C)): 100% | activity at 1 µM (PAK3): 100% | activity at 1 µM (FLT3(N841I)): 90% | activity at 1 µM (TAK1): 100% | activity at 1 µM (ACVR2B): 36% | activity at 1 µM (ALK(L1196M)): 86% | activity at 1 µM [3]: 85% | activity at 1 µM (MEK2): 50% | activity at 1 µM (YES): 100% | activity at 1 µM [4]: 88% | activity at 1 µM (EGFR(L861Q)): 100% | activity at 1 µM (CSF1R): 95% | activity at 1 µM (PAK6): 100% | activity at 1 µM (EGFR(L858R)): 100% | activity at 1 µM (CAMK1D): 100% | activity at 1 µM (LZK): 100%
